Measured values from patent US12281084B2, “Acetyl-CoA synthetase 2 (ACSS2) inhibitors and methods using same” (The Wistar Institute, priority 2019, dated 2025).
Entries after “also recorded” stand apart in the source; their conditions may differ.

Columns and labels:
[1] = test system: SKBr3 cells; test: 13C2-acetate tracing in SKBr3 cells; format: cell-based, human; conditions: 100 μM 13C2-acetate, 24 hr, N10 or H1 (FIG. 2B)
Description: (§1) All metabolomic experiments were performed in serum-like modified Eagle's medium (SMEM). SMEM contains 54 different nutrients that are found in the bloodstream at concentrations that are physiologically relevant to humans. SMEM was supplemented with 10% or 1% fetal bovine serum (FBS; Life Technologies). Cells were grown in normoxia (atmospheric oxygen) or hypoxia (1% oxygen) while being incubated in uniformly labeled ^13C2-acetate (0.100 mM; Cambridge Isotope Laboratories). Lengths of incubation are described in the figure legends. For extraction of metabolites from cultured cells, SMEM medium was aspirated and cells were washed once in ice-cold PBS. Metabolites were extracted by adding a solution of LC-MS grade methanol/acetonitrile/water (5:3:2) to the well. […]
(§2) LC-MS analysis was performed on a Q Exactive Hybrid Quadrupole-Orbitrap HF-X MS (ThermoFisher Scientific) equipped with a HESI II probe and coupled to a Vanquish Horizon UHPLC system (ThermoFisher Scientific). […] Samples were analyzed in full MS scan with polarity switching at scan range 65 to 975 m/z; 120,000 resolution; automated gain control (AGC) target of 1E6; and maximum injection time (max IT) of 100 milliseconds. Identification and quantitation of metabolites was performed using an annotated compound library and TraceFinder 4.1 software. […]

[2] = test system: BT474 cells; test: 13C2-acetate tracing in BT474 cells; format: cell-based, human
Description: as §1, with “well. Plates were incubated at 4° C. for 5 minutes on a rocker and then the extraction solution was collected. The metabolite extract was cleared by centrifugation at 15,000×g for 10 minutes at 4° C. Supernatants were transferred to LC-MS silanized glass vials with PTFE caps and either run immediately on the LC-MS or stored at −80° C.” for “well.”
as §2
The ^13C2-acetate tracer studies were repeated in BT474 and MDA-MB-468 cells and polar metabolites were isolated in order to analyze carbon-13 labeling of the cytosolic metabolite UDP-N-acetylglucosamine (UDP-GlcNAc) and the mitochondrial metabolite citrate. Citrate is a readout of ACSS1 and ACSS3 activity in the cells since they are the mitochondria localized AcCoA synthetase family members (FIG. 11A). […]

[3] = test system: BT474 tumors; test: BT474 tumor xenograft growth in NSG mice; format: in vivo, mouse
Description: For BT474 mouse xenograft studies 5-6 week old female NSG […] were anesthetized and one 17β-estradiol 60 day release pellet (Innovative Research of America Cat. No. SE-121) was injected subcutaneously via 10 gauge precision trochar into the lateral side of the neck between the ear and shoulder. 24 hours later 10^5 BT474 luciferase positive cells in 100 μl PBS:matrigel (growth factor reduced) were injected subcutaneously into the hind limb. For A7C11 and Brpkp110 xenografts, 5×10^5 cells in 100 μl PBS:Matrigel (growth factor reduced Corning Cat. No. 356231) were subcutaneously injected into the hindlimb of 5-6 week old female NSG mice […]. Following tumor establishment in all groups, mice were randomized and treated intraperitoneally (IP) daily with vehicle (10% DMSO, 10% absolute ethanol, 20% solutol, 60% water containing 0.5% Tween20) or 100 mg/kg VY-3-135 as indicated in the figure legend. Tumors were measured thrice weekly via caliper measurement and tumor volume calculated as (L×W^2)/2 (where L is the longer of the 2 measurements). […]
Mice bearing luciferase positive tumors were injected IP with 150 mg/kg sterile filtered D-luciferin potassium salt (Gold Bio Cat. No. LUCK-1G). […] Images were analyzed using Living Image Software (Perkin Elmer). […]

[4] = test system: BT474 tumors; test: QuantSeq 3' mRNA sequencing of BT474 tumor tissue; format: in vivo, mouse; conditions: vehicle vs treated mice
Description: QuantSeq 3′ mRNA sequencing of BT474 tumor tissue from vehicle and VY-3-135 treated mice was performed. Similar to in vitro results in FIG. 3, the effects of VY-3-135 on gene transcription in vivo were minimal. […] Furthermore, of the 248 differentially regulated genes only 7 changed by more than 2-fold and none by more than 2.5-fold (FIGS. 14A-14B).

For CCn1c(C(O)(c2ccccc2)c2ccccc2)nc2ccc(C(=O)NC[C@@H](C)O)cc21 [VY-3-135, (R)-1-ethyl-2-(hydroxydiphenylmethyl)-N-(2-hydroxypropyl)-1H-benzo[d]imidazole-6-carboxamide], the “fatty acid synthesis from acetate (13C2-acetate labeling of palmitate)” value [1] was “completely blocked fatty acid synthesis from acetate”, the “incorporation of 13C2-acetate into UDP-GlcNAc” value ([2]; BT474 cells (FIG. 11C)) was “able to block incorporation of ^13C2-acetate into UDP-GlcNAc to nearly the levels of unlabeled cells” and the “incorporation of 13C2-acetate into citrate” value ([2]; BT474 cells, H1, 24 hr (FIG. 2D), readout of ACSS1 and ACSS3) was “did not decrease incorporation of ^13C2-acetate into citrate”. The “use of acetate as a substrate for fatty acid synthesis (13C2-acetate into palmitate)” value ([2]; BT474 cells, hypoxia and low lipid medium, 24 hours (FIG. 2C)) was “markedly inhibits the use of acetate as a substrate for fatty acid synthesis at low nanomolar concentrations”, the “tumor palpability / regression at end of regimen” value ([3]; BT474 luciferase tumors, VY-3-135 treated group) was “two of the tumors in VY-3-135 treated group were not palpable by the end of the regimen, with one tumor fully regressing” and the BT474 tumor growth ([3]; VY-3-135 100 mg/kg IP daily, two weeks of treatment (FIG. 6A), 100 mg/kg) was “causes a significant decrease in BT474+luciferase tumor growth; also recorded: completely abrogated tumor growth”. The “effects on gene transcription in vivo” value [4] was “minimal”.
